US12473295B2, “Substituted straight chain spiro derivatives” (Janssen Pharmaceutica NV, priority 2019, dated 2025)
Structures can show the parent of a compound that is named as a salt.

How the values were obtained:
KO-52 cells = test: Proliferation assay (spheroid growth, 8 days), KO-52 control cell line; format: cell-based, human; settings: Homo sapiens, […], read-out: spheroid assay_OneTime KO-52 IC50
Summary of the method: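 Spheroid size on day 8, taken as live-cell imaging confluence, served as readout after 8-day compound exposure (0.3% DMSO, 37 °C, 5% CO2) in round-bottom low-attachment wells. Seeding was 200 cells for MOLM14 and OCI-AML3, 300 for KO-52. IC50 came from % effect versus DMSO and reference baseline, fitted with variable slope.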

[1] = Mouse PK (in vivo T1/2 and oral bioavailability); settings: fasted male CD-1 mice, formulating agent HP-β-CD; for half-life: single IV 0.5 or 1.0 mg/kg; for bioavailability: single PO 5 mg/kg
Procedure: 3) Mouse PK (In Vivo T1/2 and Oral Bioavailability)
In vivo pharmacokinetics (PK) were assessed in fasted male CD-1 mice (age 6-8 weeks) following a single intravenous (IV, 0.5 or 1.0 mg/kg administered at 2.5 ml/kg) or oral (PO, 5 mg/kg administered at 10 ml solution/kg) dose of test article formulated in a 20% (w:vol) HP-β-CD solution or in Pyrogen free water.
Plasma and/or whole blood samples were collected from the dorsal metatarsal vein at desired timepoints via serial capillary microsampling (approx. 0.03 mL) using EDTA as an anticoagulant. Concentrations of compound in the plasma and blood samples were analyzed using a qualified LC-MS/MS method. In silico analysis of main pharmacokinetic parameters was performed using WinNonlin (Phoenix™, version 6.1) or similar software. (Results see Table 4)

hERG potassium channel = hERG potassium channel (Homo sapiens (Human), UniProt Q12809); test: Effect on membrane potassium current IKr in hERG transfected CHO cells, Protocol 1 (QPatch); format: cell-based
Summary of the method: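 Whole-cell automated patch clamp on CHO cells stably expressing hERG, held at −80 mV; the value is the tail current at −40 mV after a 2 s step to +60 mV, at pH 7.4 bath and pH 7.2 pipette. After 0.3% DMSO control, compound was applied at 3×10^−7 M, 3×10^−6 M, 10^−5 M and 3×10^−5 M, 5 min each. IC50 comes from a non-linear least-squares fit of block versus vehicle.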

Chain of hERG potassium channel (Q12809 whole entry): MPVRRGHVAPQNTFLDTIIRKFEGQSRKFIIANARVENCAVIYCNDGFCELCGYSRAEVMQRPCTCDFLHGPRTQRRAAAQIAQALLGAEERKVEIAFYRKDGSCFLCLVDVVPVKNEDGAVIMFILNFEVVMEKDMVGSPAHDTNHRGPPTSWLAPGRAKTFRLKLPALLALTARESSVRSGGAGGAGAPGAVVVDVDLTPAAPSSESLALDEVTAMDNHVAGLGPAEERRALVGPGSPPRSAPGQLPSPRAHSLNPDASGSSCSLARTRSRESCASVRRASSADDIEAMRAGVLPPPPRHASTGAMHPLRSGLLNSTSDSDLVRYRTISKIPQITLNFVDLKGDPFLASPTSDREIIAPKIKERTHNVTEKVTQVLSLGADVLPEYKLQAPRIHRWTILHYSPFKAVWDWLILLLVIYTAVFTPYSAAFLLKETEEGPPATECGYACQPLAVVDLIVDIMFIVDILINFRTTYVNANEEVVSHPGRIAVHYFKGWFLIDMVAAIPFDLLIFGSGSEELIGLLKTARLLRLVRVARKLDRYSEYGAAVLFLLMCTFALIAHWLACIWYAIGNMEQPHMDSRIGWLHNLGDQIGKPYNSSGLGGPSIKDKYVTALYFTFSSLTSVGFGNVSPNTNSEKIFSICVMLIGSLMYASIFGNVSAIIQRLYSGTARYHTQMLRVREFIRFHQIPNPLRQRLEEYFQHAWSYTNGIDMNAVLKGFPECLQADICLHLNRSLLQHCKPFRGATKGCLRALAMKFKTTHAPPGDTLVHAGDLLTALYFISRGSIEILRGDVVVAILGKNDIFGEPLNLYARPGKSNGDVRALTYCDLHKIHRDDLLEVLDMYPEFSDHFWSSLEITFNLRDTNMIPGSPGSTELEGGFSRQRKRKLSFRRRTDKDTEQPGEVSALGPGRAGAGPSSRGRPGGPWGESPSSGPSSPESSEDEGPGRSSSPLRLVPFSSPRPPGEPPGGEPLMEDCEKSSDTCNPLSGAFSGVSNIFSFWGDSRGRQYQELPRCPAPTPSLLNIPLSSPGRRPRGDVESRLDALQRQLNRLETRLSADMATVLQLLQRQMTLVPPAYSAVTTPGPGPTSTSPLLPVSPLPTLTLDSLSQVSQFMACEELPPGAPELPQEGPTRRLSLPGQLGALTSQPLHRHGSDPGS

Row | SMILES | IC50 (KO-52 cells) | half-life [1] | bioavailability [1] | IC50 (hERG potassium channel)
1 | CC(C)[C@@H](CCC(C)(C)N)N1CC2(CCN(c3ncnnc3Oc3ccc(F)cc3-c3cncnc3C3CC3)C2)C1 (single isomer, unassigned) [Compound 37, (*R)-5-(6-(6-(2-(4-cyclopropylpyrimidin-5-yl)-4-fluorophenoxy)-1,2,4-triazin-5-yl)-2,6-diazaspiro[3.4]octan-2-yl)-2,6-dimethylheptan-2-amine] | > 15 µM | > 12 h | < 1% | > 30.2 µM
2 | COCCNCCC[C@H](C(C)C)N1CC2(CCN(c3ncnnc3Oc3ccc(F)cc3C(=O)N(C(C)C)C(C)C)C2)C1 (single isomer, unassigned) [Compound 99, (*R)-5-fluoro-N,N-isopropyl-2-((5-(2-(6-((2-methoxyethyl)amino)-2-methylhexan-3-yl)-2,6-diazaspiro[3.4]octan-6-yl)-1,2,4-triazin-6-yl)oxy)benzamide oxalate] | 11.5 µM |  |  | 
3 | CCN(C(=O)c1cc(F)ccc1Oc1nncnc1N1CCC2(C1)CN([C@H](CCCN)C(C)C)C2)C(C)C [Compound 1, (R)-2-((5-(2-(6-amino-2-methylhexan-3-yl)-2,6-diazaspiro[3.4]octan-6-yl)-1,2,4-triazin-6-yl)oxy)-N-ethyl-5-fluoro-N-isopropylbenzamide formate] | > 15 µM | 15 h | < 1% | > 30.2 µM
4 | CCN(C(=O)c1cc(F)ccc1Oc1nncnc1N1CCC2(C1)CN([C@H](CCCNCC(OC)OC)C(C)C)C2)C(C)C.O=C(O)/C=C/C(=O)O [Compound 104, (R)-2-((5-(2-(6-((2,2-dimethoxyethyl)amino)-2-methylhexan-3-yl)-2,6-diazaspiro[3.4]octan-6-yl)-1,2,4-triazin-6-yl)oxy)-N-ethyl-5-fluoro-N-isopropylbenzamide fumarate] | 10.7 µM | 8.7 h | 6.1% | 
5 | CCN(C(=O)c1cc(F)ccc1Oc1nncnc1N1CCC2(C1)CN([C@H](CCCN[C@H](C)COC)C(C)C)C2)C(C)C.O=C(O)/C=C/C(=O)O [Compound 112, N-ethyl-5-fluoro-N-isopropyl-2-(5(2-((R)-6-(((R)-1-methoxypropan-2-yl)amino)-2-methylhexan-3-yl)-2,6-diazaspiro[3.4]octan-6-yl)-1,2,4-triazin-6-yl)oxy)benzamide fumarate] | > 15 µM |  |  | 
6 | CCN(C(=O)c1cc(F)ccc1Oc1nncnc1N1CCC2(C1)CN([C@H](CCCNCCC(F)F)C(C)C)C2)C(C)C.O=C(O)/C=C/C(=O)O [Compound 114, (R)-2-(5-(2-(6-((3,3-difluoropropyl)amino)-2-methylhexan-3-yl)-2,6-diazaspiro[3.4]octan-6-yl)-1,2,4-triazin-6-yl)oxy)-N-ethyl-5-fluoro-N-isopropylbenzamide fumarate] | 1.69 µM |  |  | 
7 | CCN(C(=O)c1cc(F)ccc1Oc1nncnc1N1CCC2(C1)CN([C@H](CCCN(C)CCNC(C)=O)C(C)C)C2)C(C)C.O=C(O)/C=C/C(=O)O [Compound 245, (R)-2-((5-(2-(6-((2-acetamidoethyl)(methyl)amino)-2-methylhexan-3-yl)-2,6-diazaspiro[3.4]octan-6-yl)-1,2,4-triazin-6-yl)oxy)-N-ethyl-5-fluoro-N-isopropylbenzamide fumarate] | > 15 µM | 7 h | < 1% | 
8 | CCN(C(=O)c1cc(F)ccc1Oc1nncnc1N1CCC2(C1)CN([C@H](CCCN(C)CCC(=O)N(C)C)C(C)C)C2)C(C)C [Compound 246, (R)-2-((5-(2-(6-((3-(dimethylamino)-3-oxopropyl)(methyl)amino)-2-methylhexan-3-yl)-2,6-diazaspiro[3.4]octan-6-yl)-1,2,4-triazin-6-yl)oxy)-N-ethyl-5-fluoro-N-isopropylbenzamide formate] | > 15 µM |  |  | 
